Source: ChEMBL document CHEMBL3046527, “NAD+-dependent DNA ligase (Rv3014c) from M. tuberculosis: Strategies for inhibitor design” (Med Chem Res, 2008)

Target: DNA ligase A (Mycobacterium tuberculosis, UniProt P9WNV1)
Assay: Inhibition of Mycobacterium tuberculosis LigA

Structure (SMILES)	IC50
CC1(C)O[C@H]2OC([C@H](CCO)NCCCN[C@H](CCO)C3O[C@@H]4OC(C)(C)O[C@@H]4[C@H]3OCc3ccccc3)[C@H](OCc3ccccc3)[C@H]2O1 (some centres not stated)	46.2 µM
CCN(CC)CCCC(C)Nc1ccnc2c1C=CC(Cl)C2 (configuration not stated)	46 µM
